Data from patent publication US12655142B2 (Merck Patent GmbH, priority 2019, dated 2026).

Key:
[1] = molecular target: T1, c-Kit(V654A) (Homo sapiens, UniProt P10721, V654A); experiment: c-Kit(V654A) assay (33P-ATP filter binding kinase assay); format: biochemical; conditions: recombinant human c-Kit aa 544-end V654A, ATP 200 μM
T1 construct: recombinant human c-Kit, amino acids 544-end containing the V654A mutation; GST (N)
Description: c-Kit(V654A) (N-terminal GST-tagged, recombinant human c-Kit, amino acids 544-end containing the V654A mutation) is incubated with 8 mM MOPS pH 7.0, 0.2 mM EDTA, 250 μM GGMEDIYEFMGGKKK, 10 mM MgAcetate and [gamma-33P-ATP] (specific activity approx. 500 cpm/pmol, concentration 200 μM). The reaction is initiated by the addition of the MgATP mix. After incubation for 40 minutes at room temperature, the reaction is stopped by the addition of 3% phosphoric acid solution. 10 μL of the reaction is then spotted onto a P30 filtermat and washed three times for 5 minutes in 75 mM phosphoric acid and once in methanol prior to drying and scintillation counting.

[2] = molecular target: T2, GIST430/654 cell line expressing mutated constitutively active cKIT receptor tyrosine kinase (Δ560-576 deletion and V654A point mutation) (Homo sapiens, UniProt P10721, DEL560-576/V654A); experiment: Cellular cKIT autophosphorylation (phospho-Y307-cKIT, Luminex bead assay) in GIST430/654 cells; format: cell-based; conditions: compounds 45 min, read-out: GIST 430/654 IC50
T2 construct: endogenous in cells; host or cells: GIST430/654 cells
T2 sequence (P10721 with tags, fused parts or gaps DEL560-576/V654A): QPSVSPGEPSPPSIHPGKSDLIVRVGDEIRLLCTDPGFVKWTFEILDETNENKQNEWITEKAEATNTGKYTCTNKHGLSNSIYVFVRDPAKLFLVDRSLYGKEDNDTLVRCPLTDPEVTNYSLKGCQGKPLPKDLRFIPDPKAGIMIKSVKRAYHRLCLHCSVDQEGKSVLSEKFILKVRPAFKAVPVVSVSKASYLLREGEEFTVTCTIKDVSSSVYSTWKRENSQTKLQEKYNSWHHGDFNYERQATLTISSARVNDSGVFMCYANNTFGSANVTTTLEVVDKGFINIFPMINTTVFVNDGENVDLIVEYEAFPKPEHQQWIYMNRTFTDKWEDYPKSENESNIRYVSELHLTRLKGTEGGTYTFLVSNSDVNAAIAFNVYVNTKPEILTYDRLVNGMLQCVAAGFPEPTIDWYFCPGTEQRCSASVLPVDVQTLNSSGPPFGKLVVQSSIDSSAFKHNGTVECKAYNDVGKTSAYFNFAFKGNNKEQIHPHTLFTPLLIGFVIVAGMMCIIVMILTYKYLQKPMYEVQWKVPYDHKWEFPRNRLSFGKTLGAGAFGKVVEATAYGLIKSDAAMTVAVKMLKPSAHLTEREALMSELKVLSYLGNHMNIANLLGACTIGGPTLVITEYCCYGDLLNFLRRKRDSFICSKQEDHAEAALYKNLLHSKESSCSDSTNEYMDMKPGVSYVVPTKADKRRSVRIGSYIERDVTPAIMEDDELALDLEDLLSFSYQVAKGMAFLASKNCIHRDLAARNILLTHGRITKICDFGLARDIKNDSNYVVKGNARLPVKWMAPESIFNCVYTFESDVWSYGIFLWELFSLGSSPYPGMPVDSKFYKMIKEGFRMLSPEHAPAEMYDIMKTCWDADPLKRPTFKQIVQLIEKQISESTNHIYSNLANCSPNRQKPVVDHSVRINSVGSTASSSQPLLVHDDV
Description: Assay Principle for Cellular Testing of cKIT Mutant Inhibitors
The GIST430 cell line expressing constitutive active cKIT receptor tyrosine kinase (Δ560-576 deletion) and the Imatinib resistant GIST430/654 cell line expressing mutated constitutively active cKIT receptor tyrosine kinase (Δ560-576 deletion and V654A point mutation) were employed for assessing cellular potency of compounds. Cellular activity of mutant cKIT was determined by the degree of cKIT autophosphorylation at tyrosine 307 using a Luminex-based bead assay. GIST430 cells were plated with 22,000 cells per well of a 96-well plate in 100 μl medium (85% IMDM/15% FCS) and GIST430/654 cells were plated with 25,000 cells per well of a 96-well plate in 100 μl medium (85% IMDM/15% FCS supplemented with 100 nM Imatinib). At the following day compounds were added in a serial dilution for 45 min. Then, cells were lysed with 90 μl lysis buffer (20 mM Hepes pH 7.5, 200 mM NaCl, 1.5 mM MgCl2×6H2O, 0.4 mM EDTA, 1% Triton-X-100, 1% Phosphatase-Inhibitor II, 20 mM β-Glycerolphosphat, 0.1% Protease-Inhibitor Cocktail III, 0.01% Benzonase) and lysates were cleared by centrifugation through a 96-well filter plate (0.65 μm). Samples were incubated with Luminex-beads which were coupled with an anti-total cKIT antibody overnight at 4° C. under gentle agitation. For detection of phospho-Y307-cKIT a phosphospecific antibody and a species-specific PE-labeled secondary antibody were added. The amount of phospho-Y307-cKIT was determined in a Luminex 200 instrument measuring 100 events per well within 60 seconds.
Counts from samples treated with compounds were calculated as percent of control from solvent treated (0.3% DMSO) samples. Dose-response curves were fitted and IC50 values were determined using Genedata Screener software.

T1 sequence (P10721 544-976 V654A): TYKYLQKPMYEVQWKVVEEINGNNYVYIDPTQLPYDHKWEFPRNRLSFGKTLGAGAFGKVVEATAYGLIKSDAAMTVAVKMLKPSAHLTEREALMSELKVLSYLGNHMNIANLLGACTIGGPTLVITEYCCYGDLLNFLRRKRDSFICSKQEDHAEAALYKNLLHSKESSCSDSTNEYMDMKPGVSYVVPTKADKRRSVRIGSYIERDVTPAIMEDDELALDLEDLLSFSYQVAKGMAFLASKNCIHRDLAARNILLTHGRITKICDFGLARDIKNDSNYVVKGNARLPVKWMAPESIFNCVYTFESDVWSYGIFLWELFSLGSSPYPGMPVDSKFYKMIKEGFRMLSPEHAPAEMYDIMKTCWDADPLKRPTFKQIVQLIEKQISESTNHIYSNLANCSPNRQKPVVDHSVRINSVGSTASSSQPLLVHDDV

IC50 [1] | IC50 [2] | SMILES
3.5 nM | 40 nM | CN1CCC(CCOc2ccn3c(-c4cc(NCc5ccc(-c6cnn(C)n6)cc5)ncn4)cnc3c2)CC1 [A130, (6-{7-[2-(1-methyl-piperidin-4-yl)-ethoxy]-imidazo[1,2-a]pyridin-3-yl}-pyrimidin-4-yl)-[4-(2-methyl-2H-[1,2,3]triazol-4-yl)-benzyl]-amine]
35 nM | 1400 nM | COc1ccn2c(-c3cc(NCc4cccc(-c5cnn(C)c5)c4)ncn3)cnc2c1 [A28, [6-(7-methoxy-imidazo[1,2-a]pyridin-3-yl)-pyrimidin-4-yl]-[3-(1-methyl-1H-pyrazol-4-yl)-benzyl]-amine]
19 nM | 26 nM | Cn1ncc(-c2ccc(CNc3cc(-c4cnc5cc(OCC6CCN(CC(F)F)CC6)ccn45)ncn3)cc2)n1 [A193, (6-{7-[1-(2,2-difluoro-ethyl)-piperidin-4-ylmethoxy]-imidazo[1,2-a]pyridin-3-yl}-pyrimidin-4-yl)-[4-(2-methyl-2H-[1,2,3]triazol-4-yl)-benzyl]-amine]
25 nM | 470 nM | COc1ccn2c(-c3cc(NCc4ccc(-c5cnc(C)o5)cc4)ncn3)cnc2c1 [A48, [6-(7-methoxy-imidazo[1,2-a]pyridin-3-yl)-pyrimidin-4-yl]-[4-(2-methyl-oxazol-5-yl)-benzyl]-amine]
9.6 nM | 160 nM | Cn1cc(-c2ccc(CNc3cc(-c4cnc5cc(OCCN6CC(F)(F)C6)ccn45)ncn3)cc2)cn1 [A139, 6-{7-[2-(3,3-difluoroazetidin-1-yl)ethoxy]imidazo[1,2-a]pyridin-3-yl}-N-{[4-(1-methyl-1H-pyrazol-4-yl)phenyl]methyl}pyrimidin-4-amine]
3.3 nM | 48 nM | CC(COc1ccn2c(-c3cc(NCc4ccc(-c5cnn(C)n5)cc4)ncn3)cnc2c1)CN1CCCC1 (stereo not drawn) [A227, {6-[7-(2-methyl-3-pyrrolidin-1-yl-propoxy)-imidazo[1,2-a]pyridin-3-yl]-pyrimidin-4-yl}-[4-(2-methyl-2H-[1,2,3]triazol-4-yl)-benzyl]-amine]
72 nM | 540 nM | Cn1cc(-c2ccc(CNc3cc(-c4cnc5cc(OCc6ccccc6)ccn45)ncn3)cc2)cn1 [A72, 6-[7-(benzyloxy)imidazo[1,2-a]pyridin-3-yl]-N-{[4-(1-methyl-1H-pyrazol-4-yl)phenyl]methyl}pyrimidin-4-amine]
13 nM | 110 nM | CN1CCN(CCOc2ccn3c(-c4cc(NCc5ccc(-c6cnn(C)c6)cc5)ncn4)cnc3c2)CC1=O [A93, 1-methyl-4-[2-({3-[6-({[4-(1-methyl-1H-pyrazol-4-yl)phenyl]methyl}amino)pyrimidin-4-yl]imidazo[1,2-a]pyridin-7-yl}oxy)ethyl]piperazin-2-one]
8.3 nM | 98 nM | Cn1ncc(-c2ccc(CNc3cc(-c4cnc5cc(OCCc6nccn6C)ccn45)ncn3)cc2)n1 [A98, (6-{7-[2-(1-methyl-1H-imidazol-2-yl)-ethoxy]-imidazo[1,2-a]pyridin-3-yl}-pyrimidin-4-yl)-[4-(2-methyl-2H-[1,2,3]triazol-4-yl)-benzyl]-amine]
12 nM | 89 nM | Cn1cc(-c2ccc(CNc3cc(-c4cnc5cc(OCCCN6CCOCC6=O)ccn45)ncn3)cc2)cn1 [A88, 4-[3-({3-[6-({[4-(1-methyl-1H-pyrazol-4-yl)phenyl]methyl}amino)pyrimidin-4-yl]imidazo[1,2-a]pyridin-7-yl}oxy)propyl]morpholin-3-one]
11 nM | 92 nM | Cn1cc(-c2ccc(CNc3cc(-c4cnc5cc(OC6CCN(C7COC7)CC6)ccn45)ncn3)cc2)cn1 [A182, N-{[4-(1-methyl-1H-pyrazol-4-yl)phenyl]methyl}-6-(7-{[1-(oxetan-3-yl)piperidin-4-yl]oxy}imidazo[1,2-a]pyridin-3-yl)pyrimidin-4-amine]
12 nM | 240 nM | Cn1cc(-c2ccc(CNc3cc(-c4cnc5cc(F)ccn45)ncn3)cc2)cn1 [H1, 6-{7-fluoroimidazo[1,2-a]pyridin-3-yl}-N-{[4-(1-methyl-1H-pyrazol-4-yl)phenyl]methyl}pyrimidin-4-amine]
10 nM | 260 nM | Cn1cc(-c2ccc(COc3cc(-c4cnc5cc(OCCN6CCC(F)(F)C6)ccn45)ncn3)cc2)cn1 [A90, 7-[2-(3,3-difluoro-pyrrolidin-1-yl)-ethoxy]-3-{6-[4-(1-methyl-1H-pyrazol-4-yl)-benzyloxy]-pyrimidin-4-yl}-imidazo[1,2-a]pyridine]
14 nM | 620 nM | Cn1cc(-c2ccc(CNc3cc(-c4cnc5cc(OCc6nccn6C)ccn45)ncn3)cc2)cn1 [A113, {6-[7-(1-methyl-1H-imidazol-2-ylmethoxy)-imidazo[1,2-a]pyridin-3-yl]-pyrimidin-4-yl}-[4-(1-methyl-1H-pyrazol-4-yl)-benzyl]-amine]
11 nM | 44 nM | Cn1cc(-c2ccc(CNc3cc(-c4cnc5cc(OCCC[N+]6([O-])CCCC6)ccn45)ncn3)cc2)cn1 [A228, 1-[3-({3-[6-({[4-(1-methyl-1H-pyrazol-4-yl)phenyl]methyl}amino)pyrimidin-4-yl]imidazo[1,2-a]pyridin-7-yl}oxy)propyl]pyrrolidin-1-ium-1-olate]
87 nM | 660 nM | COc1ccn2c(-c3cc(NCc4ccc(-c5cn(CC(C)(C)O)nc5N)cc4)ncn3)cnc2c1 [A229, 1-[3-amino-4-(4-{[6-(7-methoxy-imidazo[1,2-a]pyridin-3-yl)-pyrimidin-4-ylamino]-methyl}-phenyl)-pyrazol-1-yl]-2-methyl-propan-2-ol]
6.4 nM | 62 nM | Cn1cc(-c2ccc(CNc3cc(-c4cnc5cc(OCCCN6CC7(COC7)C6)ccn45)ncn3)cc2)cn1 [A238, [4-(1-methyl-1H-pyrazol-4-yl)-benzyl]-(6-{7-[3-(2-oxa-6-aza-spiro[3.3]hept-6-yl)-propoxy]-imidazo[1,2-a]pyridin-3-yl}-pyrimidin-4-yl)-amine]
27 nM | 970 nM | Cn1cc(-c2ccc(CNc3cc(-c4cnc5cc([N+](=O)[O-])ccn45)ncn3)cc2)cn1 [A81, N-{[4-(1-methyl-1H-pyrazol-4-yl)phenyl]methyl}-6-{7-nitroimidazo[1,2-a]pyridin-3-yl}pyrimidin-4-amine]
27 nM | 510 nM | COc1ccn2c(-c3cc(NCc4ccc(-c5cnn(C)n5)cn4)ncn3)cnc2c1 [A44, [6-(7-methoxy-imidazo[1,2-a]pyridin-3-yl)-pyrimidin-4-yl]-[5-(2-methyl-2H-[1,2,3]triazol-4-yl)-pyridin-2-ylmethyl]-amine]
5.7 nM | 150 nM | COc1ccn2c(-c3cc(NCc4ccc(-c5cc(C)no5)cc4)ncn3)cnc2c1 [A52, [6-(7-methoxy-imidazo[1,2-a]pyridin-3-yl)-pyrimidin-4-yl]-[4-(3-methyl-isoxazol-5-yl)-benzyl]-amine]
8.6 nM | 82 nM | Cn1cc(-c2ccc(CNc3cc(-c4cnc5cc(OCCN6CCC(F)C6)ccn45)ncn3)cc2)cn1 (stereo not drawn) [A89, 6-{7-[2-(3-fluoropyrrolidin-1-yl)ethoxy]imidazo[1,2-a]pyridin-3-yl}-N-{[4-(1-methyl-1H-pyrazol-4-yl)phenyl]methyl}pyrimidin-4-amine]
25 nM | 490 nM | COc1ccn2c(-c3cc(NCc4ccc(-c5cn(C)nc5OC)cc4)ncn3)cnc2c1 [A50, N-{[4-(3-methoxy-1-methyl-1H-pyrazol-4-yl)phenyl]methyl}-6-{7-methoxyimidazo[1,2-a]pyridin-3-yl}pyrimidin-4-amine]
9.5 nM | 190 nM | Cn1cc(-c2ccc(CNc3cc(-c4cnc5cc(OCC6CCN(CC#N)CC6)ccn45)ncn3)cc2)cn1 [A188, [4-(3-{6-[4-(1methyl-1H-pyrazol-4-yl)-benzylamino]-pyrimidin-4-yl}-imidazo[1,2-a]pyridin-7-yloxymethyl)-piperidin-1-yl]-acetonitrile]
9.5 nM | 120 nM | Cn1ncc(-c2ccc(CNc3cc(-c4cnc5cc(OCCN6CCC(F)(F)C6)ccn45)ncn3)cc2)n1 [A105, (6-{7-[2-(3,3-difluoro-pyrrolidin-1-yl)-ethoxy]-imidazo[1,2-a]pyridin-3-yl}-pyrimidin-4-yl)-[4-(2-methyl-2H-[1,2,3]triazol-4-yl)-benzyl]-amine]
